# Data published in US11590139B2, “Substituted aminopurine compounds, compositions thereof, and methods of treatment therewith” (Signal Pharmaceuticals, LLC, priority 2014, dated 2023).
# Test system: Lox-IMVI melanoma cell line
# Assay: Lox-IMVI anti-proliferative assay (growth inhibition, Cell Titer-Glo)
# Format: cell-based, human
# Settings: Homo sapiens; IC50 activity level in the cell-based Lox-IMVI anti-proliferative assay; read-out: Activity
# Procedure, shortened: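 Growth inhibition is assessed over 72 h in RPMI + 10% FBS at 0.2% DMSO, with ATP-based luminescence used as the viability measure. IC50 is fitted from normalized dose-response data.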
row,IC50,SMILES
1,> 1000 nM,"NC(=O)[C@H]1CC[C@@H](n2c(Nc3ccc(Cl)c(Cl)c3Cl)nc3cnc(NC4CCOCC4)nc32)CC1 [Example 73, (1s,4s)-4-(2-(tetrahydro-2H-pyran-4-ylamino)-8-(2,3,4-trichlorophenylamino)-9H-purin-9-yl)cyclohexanecarboxamide]"
2,250 to 500 nM,"NC(=O)[C@H]1CC[C@@H](n2c(Nc3c(Cl)cc(F)cc3Cl)nc3cnc(NC4CCC(F)(F)CC4)nc32)CC1 [Example 201, (1s,4s)-4-(8-(2,6-dichloro-4-fluorophenylamino)-2-(4,4-difluorocyclohexylamino)-9H-purin-9-yl)cyclohexanecarboxamide]"
3,> 1000 nM,"NC(=O)[C@H]1CC[C@@H](n2c(Nc3c(F)cccc3Cl)nc3cnc(N[C@@H]4CC[C@@H](O)C4)nc32)CC1 [Example 208, (1S,4s)-4-(8-(2-chloro-6-fluorophenylamino)-2-((1R,3R)-3-hydroxycyclopentylamino)-9H-purin-9-yl)cyclohexanecarboxamide]"
4,500 to 1000 nM,"CO[C@H]1CC[C@H](Nc2ncc3nc(Nc4c(Cl)cc(Cl)cc4Cl)n([C@H]4CC[C@@H](C(N)=O)CC4)c3n2)CC1 [Example 77, (1s,4s)-4-(2-((1r,4r)-4-methoxycyclohexylamino)-8-(2,4,6-trichlorophenylamino)-9H-purin-9-yl)cyclohexanecarboxamide]"
5,> 1000 nM,"C[C@H](CO)Nc1ncc2nc(Nc3c(F)cc(Cl)cc3F)n([C@H]3CC[C@@H](C(N)=O)CC3)c2n1 [Example 132, (1S,4s)-4-(8-(4-chloro-2,6-difluorophenylamino)-2-((R)-1-hydroxypropan-2-ylamino)-9H-purin-9-yl)cyclohexanecarboxamide]"
6,> 1000 nM,"NC(=O)[C@H]1CC[C@@H](n2c(Nc3cc(F)c(Cl)cc3F)nc3cnc(N[C@@H]4CCC[C@H]4O)nc32)CC1 [Example 265, (1S,4s)-4-(8-(4-chloro-2,5-difluorophenylamino)-2-((1R,2R)-2-hydroxycyclopentylamino)-9H-purin-9-yl)cyclohexanecarboxamide]"
7,> 1000 nM,"Cc1cc(Nc2nc3cnc(NC4CCOCC4)nc3n2[C@H]2CC[C@@H](C(N)=O)CC2)c(F)cc1Cl [Example 71, (1s,4s)-4-(8-(4-chloro-2-fluoro-5-methylphenylamino)-2-(tetrahydro-2H-pyran-4-ylamino)-9H-purin-9-yl)cyclohexanecarboxamide]"
8,> 1000 nM,"Cc1cc(F)c(Nc2nc3cnc(NC4CCOCC4)nc3n2[C@H]2CC[C@@H](C(N)=O)CC2)cc1F [Example 106, (1s,4s)-4-(8-(2,5-difluoro-4-methylphenylamino)-2-(tetrahydro-2H-pyran-4-ylamino)-9H-purin-9-yl)cyclohexanecarboxamide]"
9,> 1000 nM,"NC(=O)[C@H]1CC[C@@H](n2c(Nc3c(Cl)cc(F)cc3Cl)nc3cnc(N[C@@H]4COC[C@H]4O)nc32)CC1 [Example 315, (1S,4s)-4-(8-(2,6-dichloro-4-fluorophenylamino)-2-((3R,4S)-4-hydroxytetrahydrofuran-3-ylamino)-9H-purin-9-yl)cyclohexanecarboxamide]"
10,> 1000 nM,"NC(=O)[C@H]1CC[C@@H](n2c(Nc3ccc(Cl)cc3F)nc3cnc(NC4CCCC4)nc32)CC1 [Example 95, (1s,4s)-4-(8-(4-chloro-2-fluorophenylamino)-2-(cyclopentylamino)-9H-purin-9-yl)cyclohexanecarboxamide]"
11,> 1000 nM,"NC(=O)[C@H]1CC[C@@H](n2c(Nc3c(F)ccc(Cl)c3F)nc3cnc(N[C@H]4CCC[C@@H]4O)nc32)CC1 [Example 273, (1R,4s)-4-(8-(3-chloro-2,6-difluorophenylamino)-2-((1S,2S)-2-hydroxycyclopentylamino)-9H-purin-9-yl)cyclohexanecarboxamide]"
12,> 1000 nM,"NC(=O)[C@H]1CC[C@@H](n2c(Nc3ccc(Cl)c(F)c3F)nc3cnc(N[C@@H]4CCC[C@H](O)C4)nc32)CC1 [Example 360, (1S,4s)-4-(8-(4-chloro-2,3-difluorophenylamino)-2-((1R,3S)-3-hydroxycyclohexylamino)-9H-purin-9-yl)cyclohexanecarboxamide]"
13,500 to 1000 nM,"CC[C@H](C)Nc1ncc2nc(Nc3c(F)cc(F)cc3Cl)n([C@H]3CC[C@@H](C(N)=O)CC3)c2n1 [Example 338, (1R,4s)-4-(2-(sec-butylamino)-8-(2-chloro-4,6-difluorophenylamino)-9H-purin-9-yl)cyclohexanecarboxamide]"
14,> 1000 nM,"CC[C@H](CO)Nc1ncc2nc(Nc3c(Cl)cc(F)cc3Cl)n([C@H]3CC[C@@H](C(N)=O)CC3)c2n1 [Example 126, (1S,4s)-4-(8-(2,6-dichloro-4-fluorophenylamino)-2-((R)-1-hydroxybutan-2-ylamino)-9H-purin-9-yl)cyclohexanecarboxamide]"
15,> 1000 nM,"NC(=O)[C@H]1CC[C@@H](n2c(Nc3c(F)cc(F)cc3F)nc3cnc(N[C@H]4CCC[C@@H]4O)nc32)CC1 [Example 266, (1R,4s)-4-(2-((1S,2S)-2-hydroxycyclopentylamino)-8-(2,4,6-trifluorophenylamino)-9H-purin-9-yl)cyclohexanecarboxamide]"

# Same assay, conditions: Homo sapiens; Lox-IMVI anti-proliferative assay, IC50 activity level; read-out: Activity
row,IC50,SMILES
1,< 250 nM,"C[C@@H](CO)Nc1ncc2nc(Nc3c(Cl)cc(F)cc3Cl)n([C@H]3CC[C@@](C)(C(N)=O)CC3)c2n1 [Example 551, (1R,4s)-4-(8-(2,6-dichloro-4-fluorophenylamino)-2-((S)-1-hydroxypropan-2-ylamino)-9H-purin-9-yl)-1-methylcyclohexanecarboxamide]"
2,< 250 nM,"C[C@]1(C(N)=O)CC[C@@H](n2c(Nc3c(F)cc(F)cc3Cl)nc3cnc(NC4CCC(F)(F)CC4)nc32)CC1 [Example 527, (1s,4s)-4-(8-(2-chloro-4,6-difluorophenylamino)-2-(4,4-difluorocyclohexylamino)-9H-purin-9-yl)-1-methylcyclohexanecarboxamide]"
3,> 1000 nM,"N#Cc1ccc(F)c(Nc2nc3cnc(NC4CCOCC4)nc3n2[C@H]2CC[C@@H](C(N)=O)CC2)c1F [Example 447, (1s,4s)-4-(8-(3-cyano-2,6-difluorophenylamino)-2-(tetrahydro-2H-pyran-4-ylamino)-9H-purin-9-yl)cyclohexanecarboxamide]"
4,> 1000 nM,"C[C@]1(C(N)=O)CC[C@H](n2c(Nc3c(Cl)cc(C(F)(F)F)cc3Cl)nc3cnc(NC4CCCC4)nc32)CC1 [Example 488, (1r,4r)-4-(2-(cyclopentylamino)-8-(2,6-dichloro-4-(trifluoromethyl)phenylamino)-9H-purin-9-yl)-1-methylcyclohexanecarboxamide]"
5,500 to 1000 nM,"NC(=O)[C@H]1CC[C@@H](n2c(Nc3c(Cl)cc(F)cc3Cl)nc3cnc(NC4CCCOCC4)nc32)CC1 (stereo partly shown) [Example 541, (1s,4s)-4-(8-(2,6-dichloro-4-fluorophenylamino)-2-(oxepan-4-ylamino)-9H-purin-9-yl)cyclohexanecarboxamide]"
6,< 250 nM,"C[C@]1(C(N)=O)CC[C@@H](n2c(Nc3c(F)cc(F)cc3Cl)nc3cnc(NC4CC(F)(F)C4)nc32)CC1 [Example 579, (1s,4s)-4-(8-(2-chloro-4,6-difluorophenylamino)-2-(3,3-difluorocyclobutylamino)-9H-purin-9-yl)-1-methylcyclohexanecarboxamide]"
7,< 250 nM,"C[C@]1(C(N)=O)CC[C@@H](n2c(Nc3c(Cl)cc(C#N)cc3Cl)nc3cnc(NC4CCC(F)(F)CC4)nc32)CC1 [Example 534, (1s,4s)-4-(8-(2,6-dichloro-4-cyanophenylamino)-2-(4,4-difluorocyclohexylamino)-9H-purin-9-yl)-1-methylcyclohexanecarboxamide]"

# Same assay, conditions: Homo sapiens; Lox-IMVI melanoma cell line, anti-proliferative assay; read-out: Activity (IC50 activity level)
row,IC50,SMILES
1,< 250 nM,"C[C@]1(C(N)=O)CC[C@@H](n2c(Nc3c(F)cc(Cl)cc3Cl)nc3cnc(NC4CCC4)nc32)CC1 [Example 605, (1s,4s)-4-(2-(cyclobutylamino)-8-(2,4-dichloro-6-fluorophenylamino)-9H-purin-9-yl)-1-methylcyclohexanecarboxamide]"
2,> 1000 nM,"Cc1ccc(S(=O)(=O)N2CCC[C@@H](Nc3ncc4nc(Nc5c(F)cc(C#N)cc5F)n([C@H]5CC[C@@H](C(N)=O)CC5)c4n3)C2)cc1 [Example 790, (1S,4s)-4-(8-(4-cyano-2,6-difluorophenylamino)-2-((R)-1-tosylpiperidin-3-ylamino)-9H-purin-9-yl)cyclohexanecarboxamide]"
3,> 1000 nM,"CC1(C)COCC[C@H]1Nc1ncc2nc(Nc3c(F)cc(Cl)cc3F)n([C@H]3CC[C@@H](C(N)=O)CC3)c2n1 [Example 786, (1S,4s)-4-(8-(4-chloro-2,6-difluorophenylamino)-2-((R)-3,3-dimethyltetrahydro-2H-pyran-4-ylamino)-9H-purin-9-yl)cyclohexanecarboxamide]"
4,> 1000 nM,"NC(=O)[C@H]1CC[C@@H](n2c(Nc3c(Cl)cc(Cl)cc3Cl)nc3cnc(N[C@@H]4CCCN(c5ccccc5)C4)nc32)CC1 [Example 743, (1S,4s)-4-(2-((R)-1-phenylpiperidin-3-ylamino)-8-(2,4,6-trichlorophenylamino)-9H-purin-9-yl)cyclohexanecarboxamide]"
5,500 to 1000 nM,"CC(C)OC(=O)N1CCC[C@@H](Nc2ncc3nc(Nc4c(Cl)cc(Cl)cc4Cl)n([C@H]4CC[C@@H](C(N)=O)CC4)c3n2)C1 [Example 768, (R)-isopropyl 3-(9-((1s,4S)-4-carbamoylcyclohexyl)-8-(2,4,6-trichlorophenylamino)-9H-purin-2-ylamino)piperidine-1-carboxylate]"
6,> 1000 nM,"Cc1ccc(S(=O)(=O)N2CCC[C@@H](Nc3ncc4nc(Nc5c(F)cc(C#N)cc5Cl)n([C@H]5CC[C@@H](C(N)=O)CC5)c4n3)C2)cc1 [Example 795, (1S,4s)-4-(8-(2-chloro-4-cyano-6-fluorophenylamino)-2-((R)-1-tosylpiperidin-3-ylamino)-9H-purin-9-yl)cyclohexanecarboxamide]"
